Patent US20230390250A1, “MODULATION OF GLUCAGON-LIKE PEPTIDE 1 AND USES THEREOF” (priority 2020, published 2023)
pKi: −log10 of the molar value. Entries after “also recorded” stand apart in the source; their conditions may differ.

What was measured:
GLP-1 [1] = assay: Circulating GLP-1 in mice injected with LPA, with or without LPAR antagonist pre-treatment; assay type: in vivo; conditions: for prevention of LPA-induced decrease in plasma GLP-1: 5 mg/kg i.p. 10 min before 50 mg/kg 1-oleoyl-2-hydroxy-LPA, n=3 (Example 3, FIG. 4)
Protocol: We injected mice i.p. with vehicle (10% DMSO in isotonic saline) or 50 mg/kg of 1-oleoyl-2-hydroxy-LPA. Half of the mice injected with LPA were pre-injected with 5 mg/kg Ki-16425 10 minutes prior to receiving LPA. Thirty minutes later, samples of blood were taken by cardiac puncture, and circulating active GLP-1 levels in plasma were analysed by enzyme linked immunosorbent assay.
(§1) The experimental protocol was as follows: • 1. Mice were administered an LPAR antagonist drug, either by oral gavage (for BMS986020, SARI 00842, AM966, AM095, or H2L51863030), or by i.p. injection (for Ki-16425, and LPA2-antagonistl) at the doses indicated in the table below. • 2. Control mice were administered only the vehicle (a 10% DMSO solution) given via the same route as the comparison drug was administered. • 3. Ten minutes later, mice were injected i.p. either with isotonic saline, or with 50 mg/kg LPA. • 4. Thirty minutes later, mice were euthanized by cervical dyslocation, and blood was collected from the heart for preparation of serum that was stored at −80C until it was analyzed for total GLP-1 concentration by ELISA assay using a GLP-1 enzyme immunoassay kit.

[2] = Glucose intolerance and insulin secretion in fatty-kidney (RT-SAKO) mice; assay type: in vivo
LPAR3 = molecular target: T1, LPAR3 (Homo sapiens, UniProt Q9UBY5); conditions: cited from earlier work
T1 sequence (Q9UBY5 1-353): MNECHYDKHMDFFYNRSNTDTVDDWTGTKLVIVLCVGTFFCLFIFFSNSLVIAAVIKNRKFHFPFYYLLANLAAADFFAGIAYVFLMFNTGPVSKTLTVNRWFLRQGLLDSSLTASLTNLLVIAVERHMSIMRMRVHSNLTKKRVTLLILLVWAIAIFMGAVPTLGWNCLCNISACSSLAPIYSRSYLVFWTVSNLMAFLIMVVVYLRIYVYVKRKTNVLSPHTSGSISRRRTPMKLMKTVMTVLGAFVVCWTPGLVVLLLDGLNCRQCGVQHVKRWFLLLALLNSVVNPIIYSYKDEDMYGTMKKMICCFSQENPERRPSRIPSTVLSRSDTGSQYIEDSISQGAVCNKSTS

GLP-1 [3] = assay: Blood GLP-1 in RT-SAKO mice (elevated endogenous LPA) treated with Ki-16425; assay type: in vivo; conditions: 30 minutes after injection
From the text: Our laboratory has created a new genetic mouse model to study the isolated effects of obesity on kidney health. This model was not created to test LPA metabolism or to study GLP-1 regulation, but we have made important discoveries on these topics. We have made mice that lack the enzyme adipose triglyceride lipase (ATGL) in renal tubule cells, and have named these mice renal tubule-specific adipose triglyceride lipase knockout (or RT-SAKO) mice. These mice develop fatty kidneys, and as a side effect of changes in kidney cell metabolism, their kidneys make more LPA. As a result, RT-SAKO mice develop elevations in blood lysophosphatidic acid levels by 16-18 weeks of age (FIG. 5, left panel). They also have low circulating levels of GLP-1 (FIG. 5, right panel).

DPP4 [4] = assay: DPP4 activity in GLUTag cells (fluorometric kit ab204722); assay type: cell-based, mouse
Protocol: Briefly, GLUTag cells were grown to produce the recommended quantity needed for the assay according to the manufacturer's protocol (ab204722 Dipeptidyl peptidase IV Activity Assay Kit (Fluorometric)), and then the wells were treated in media containing charcoal-stripped FBS (10%), with either nothing (no treatment control), or vehicle control (0.05% DMSO), or 2.5 uM 18:1-LPA for 30 minutes, and then the inhibitors (as indicated in the graph of FIG. 17) were added to the vehicle wells and the 2.5 uM 18:1-LPA wells at 10 uM concentrations, as indicated on the graph (FIG. 17), for an additional 2 hours. Cells were then harvested according to the manufacturer's protocol, and lysed using reagents from the kit. Charcoal-stripped FBS was used to remove lipids, including LPA, from serum. Experiments were also carried out wherein the FBS was not stripped with charcoal, and the results were not different.
According to the manufacturer, dipeptidyl peptidase IV (DPP4) Activity Assay Kit (Fluorometric) (ab204722) is an assay where DPP4 cleaves a substrate to release a quenched fluorescent group, AMC (7-Amino-4-Methyl Coumarin), which can be easily detected at Ex/Em=360/460 nm. This assay is rapid, simple, sensitive, and reliable, as well as, suitable for high throughput activity screening of DPP4. This kit detects DPP4 activity as low as 3 ρU per well.

DPP4 [5] = assay: DPP4 activity in serum of C57BI/6J mice; assay type: in vivo
Protocol: Mice were injected with 5 mg/kg Ki16425 or control (10% DMSO in isotonic saline), then injected 10 mins later with 50 mg/kg 1-18:1-LPA or saline (vehicle control), then euthanized 30 minutes later for serum collection and analysis.
as §1, with “(for” for “(for BMS986020,”, “00842” for “00842, AM966, AM095,”, “AM966),” for “H2L51863030),”, “Ki-16425)” for “Ki-16425, and LPA2-antagonistl)”, “18:1-LPA.” for “LPA.”

insulin secretion = conditions: prior study, Rancoule et al. 2013, cited from earlier work
GLUTag cells = assay: GLP-1 secretion from cultured GLUTag cells treated with LPA and/or LPAR antagonist; assay type: cell-based, mouse; conditions: 10 μM antagonist plus 2.5 μM LPA
Protocol: We have grown GLUTag cells in culture to test effects of various LPA species and the LPAR 1/2/3 inhibitor Ki-16425. GLUTag cells are a well characterized L-cell line derived from a mouse intestinal tumour, which have been widely used to study the regulation of GLP-1. Briefly, GLUTag cells were grown until 80-90% confluent. Complete medium, containing fetal bovine serum, was replaced with medium containing charcoal[…] dextran treated serum, which removes lipids and hormones that could interfere with testing. […] This indicates a direct inhibitory effect of LPA at physiologically relevant levels on GLP-1 secretion by L-cells, and the ability of a commercially available LPAR antagonist to prevent this.
Experimental Protocol. Briefly, GLUTag cells were grown until 70-80% confluent. Complete medium (low glucose DMEM), containing fetal bovine serum, was replaced with medium containing charcoal-dextran treated serum, which removes lipids and hormones that could interfere with testing. Cells were then treated with medium containing either DMSO as vehicle control (0.1% v/v), 2.5 μM LPA, 10 μM LPAR antagonist, or a combination of the LPA species and inhibitors. For cells treated with both LPA plus LPAR inhibitor: cells were pre-treated with LPA for 30 minutes and then 10 uM LPAR inhibitor was added to the respective wells for a further 2 hours. For cells treated with LPA only, or vehicle only, the total treatment time was 2.5 hours. For cells treated with antagonist only, the treatment time was 2 hours.

LPAR1 = LPAR1 (Homo sapiens, UniProt Q92633); conditions: cited from earlier work
LPAR2 = LPAR2 (Homo sapiens, UniProt Q9HBW0); conditions: cited from earlier work
LPAR2, sequence (Q9HBW0 whole entry, species assumed): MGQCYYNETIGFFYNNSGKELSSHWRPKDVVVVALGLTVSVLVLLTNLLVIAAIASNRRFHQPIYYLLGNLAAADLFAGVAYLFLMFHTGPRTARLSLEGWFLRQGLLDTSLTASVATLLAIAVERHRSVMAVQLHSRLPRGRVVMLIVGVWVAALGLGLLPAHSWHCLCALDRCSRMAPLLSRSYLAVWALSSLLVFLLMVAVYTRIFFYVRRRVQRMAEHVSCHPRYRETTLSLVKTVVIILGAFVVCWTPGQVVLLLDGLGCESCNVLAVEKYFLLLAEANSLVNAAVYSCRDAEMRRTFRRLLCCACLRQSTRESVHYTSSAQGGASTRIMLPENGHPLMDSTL

LPAR1, sequence (Q92633 whole entry, species assumed): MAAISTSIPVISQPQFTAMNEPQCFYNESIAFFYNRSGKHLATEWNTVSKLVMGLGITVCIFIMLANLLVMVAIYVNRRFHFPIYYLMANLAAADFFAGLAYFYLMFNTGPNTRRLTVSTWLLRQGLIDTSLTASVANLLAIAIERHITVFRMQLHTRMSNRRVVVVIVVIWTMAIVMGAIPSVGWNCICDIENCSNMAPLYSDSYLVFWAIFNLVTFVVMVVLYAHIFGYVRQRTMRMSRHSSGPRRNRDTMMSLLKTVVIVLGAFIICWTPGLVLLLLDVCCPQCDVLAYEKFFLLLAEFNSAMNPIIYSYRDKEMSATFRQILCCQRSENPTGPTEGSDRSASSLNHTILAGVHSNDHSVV

Cc1noc(-c2ccc(CSCCC(=O)O)cc2)c1NC(=O)OC(C)c1ccccc1Cl (stereo not drawn) [Ki16425]
prevention of LPA-induced decrease in plasma GLP-1 (GLP-1 [1]): significantly abrogates | prevention of LPA-induced decrease in plasma GLP-1 (GLP-1 [1]; listed as Ki-16425): partially restored; also recorded: partially prevented; also recorded: significantly prevented | rescue of the fall in blood GLP-1 levels caused by LPA (GLP-1 [1]; antagonist 5 mg/kg i.p. 10 min before 50 mg/kg 18:1-LPA i.p., serum at 30 min (Examples 6, 8)): completely abrogated; also recorded: Complete rescues; also recorded: restored to normal levels | blood GLP-1 with antagonist alone versus vehicles (GLP-1 [1]; antagonist 5 mg/kg i.p., no LPA): indistinguishable from mice treated only with the vehicles | glucose intolerance and impaired insulin secretion [2]: rescues | pKi (LPAR3): 6.03 | level at which LPAR3 is antagonized (LPAR3): low micromolar levels | restoration of blood GLP-1 levels in RT-SAKO mice (GLP-1 [3]): restores GLP-1 levels; also recorded: come back up to close to normal | effect of 18:1-LPA combined with LPAR antagonist on DPP4 activity in GLUTag cells (DPP4 [4]; 2.5 uM 18:1-LPA 30 minutes, then 10 uM antagonist 2 hours): did not significantly affect | effect of LPAR antagonist alone on DPP4 activity in GLUTag cells (DPP4 [4]; 10 uM antagonist, 2 hours): did not significantly affect | effect of antagonist on DPP4 activity in mouse serum (DPP4 [5]; 5 mg/kg i.p.): did not significantly affect; also recorded: lack of effect; also recorded: not significantly affected | effect of 18:1-LPA combined with antagonist on DPP4 activity in mouse serum (DPP4 [5]; antagonist 5 mg/kg i.p. then 50 mg/kg 18:1-LPA): did not affect | beta-islet cell number (insulin secretion; mice on a high-fat diet): increased | prevention of LPA-impaired insulin secretion (insulin secretion): prevented | rescue of LPA-inhibited GLP-1 secretion by LPAR antagonist (GLUTag cells): larger effect than the others; also recorded: prevented that decrease | rescue of LPA-inhibited GLP-1 secretion by LPAR antagonist (GLUTag cells; listed as Ki-16425): completely prevents this decrease; also recorded: restored | pKi (LPAR1): 6.47 | pKi (LPAR2): 5.19
